Results published in paper PMC2630805, “Anticancer Alkaloid Lamellarins Inhibit Protein Kinases” (Marine Drugs, 2008).
pIC50: −log10 of the molar value. Where two headings read alike, the source gives them in different places.

Tests used:
GSK-3α/ß = experiment: GSK-3α/β kinase assay (GS-1 substrate); type: biochemical, porcine; conditions: 15 μM ATP; cell '− (x)' = no inhibitory activity detected, x = highest concentration tested
Excerpt: GSK-3 α/β was purified from porcine brain by affinity chromatography on immobilized axin [39].

CDK1/cyclin B = CDK1/cyclin B kinase assay (histone H1, P81 phosphocellulose); type: biochemical, starfish (Marthasterias glacialis); conditions: 15 μM ATP; cell '− (x)' = no inhibitory activity detected, x = highest concentration tested
Method: ATP (3,000 Ci/mmol; 1 mCi/ml) in a final volume of 30 μl. […] The wet filters were counted in the presence of 1 ml ACS (Amersham) scintillation fluid.

CK1 = CK1 kinase assay (CKS peptide); type: biochemical, porcine
Method: CK1 was purified from porcine brain by affinity chromatography on immobilized axin fragment. The mixture of native CK1 isoforms (essentially CK1δ and CK1ɛ) was assayed in three-fold diluted buffer C, using 25 μM CKS peptide, a CK1 selective substrate (RRKHAAIGpSAYSITA, synthesized by Millegen (Labège, France). Assays were performed for 30 min. at 30°C, as described for GSK-3.

CDK5/p25 = CDK5/p25 (Homo sapiens, UniProt Q00535); experiment: CDK5/p25 kinase assay (histone H1)
Method: (§1) Blank values were subtracted and activities calculated as pmoles of phosphate incorporated during a 30 min. incubation. The activities were expressed in % of the maximal activity, i.e. in the absence of inhibitors. Controls were performed with appropriate dilutions of dimethylsulfoxide. Unless otherwise stated, the P81 phosphocellulose assay was used.
Its activity was assayed with histone H1 in buffer C as described for CDK1/cyclin B.

[1] = test system: human neuroblastoma SH-SY5Y cells; experiment: SH-SY5Y cell survival, MTS reduction assay; type: cell-based; conditions: MTS assay, dose-response after 24 h and 48 h exposure, cell '− (x)' = no activity, x = highest concentration tested, read-out: IC50 SH-SY5Y cell survival
Method: We next tested the effects of each lamellarin, at an initial 10 μM concentration, on the survival of the neuroblastoma SH-SY5Y cell line after 48 h exposure (Table 2). Cell survival was estimated by the MTS reduction assay.
SH-SY5Y human neuroblastoma cells were grown in DMEM supplemented with 2mM L-glutamine (Invitrogen, Cergy Pontoise, France), plus antibiotics (penicillin-streptomycin) and a 10% volume of fetal calf serum (FCS) (Invitrogen). Cell viability was determined by means of the MTS (3- (4,5-dimethylthiazol-2-yl)-5- (3-carboxymethoxyphenyl)-2- (4-sulfophenyl)-2H -tetrazolium) reduction method as previously described. Cell death was (also) assayed by LDH release. Lactate dehydrogenase is a stable cytosolic enzyme that is released upon cell lysis. SH-SY5Y cells were also subjected to caspase activity assays. These are based on cleavage of a synthetic caspase substrate DEVD (MP Biomedicals, 199423), a subtrate of active caspase 3/6/7. The assay was carried out according to manufacturer’s instructions.

DYRK1A = DYRK1A (Rattus norvegicus, UniProt Q63470); experiment: DYRK1A kinase assay (myelin basic protein)
Method: as §1
DYRK1A was expressed as a GST fusion protein in E. coli (vector kindly provided by Dr. W. Becker, Institute for Pharmacology and Toxicology, Aachen, Germany) and affinity purified on glutathione-agarose. […] ATP in a final volume of 30 μl. After 30 min incubation at 30°C, 25 μl aliquots of supernatant were treated as described above.

PIM 1 = PIM 1 (Homo sapiens, UniProt P11309); experiment: PIM1 kinase assay (histone H1); type: biochemical; conditions: 15 μM ATP; cell '− (x)' = no inhibitory activity detected, x = highest concentration tested; read-out: IC50 PIM 1
HeLa cells = test system: HeLa cells; set-up: method as in PMID 11975488; conditions: provided for comparison, ref [18]; cited from earlier work
[2] = 15 μM ATP, cell '− (x)' = no inhibitory activity detected, x = highest concentration tested

Chain of CDK5/p25 (Q00535 whole entry): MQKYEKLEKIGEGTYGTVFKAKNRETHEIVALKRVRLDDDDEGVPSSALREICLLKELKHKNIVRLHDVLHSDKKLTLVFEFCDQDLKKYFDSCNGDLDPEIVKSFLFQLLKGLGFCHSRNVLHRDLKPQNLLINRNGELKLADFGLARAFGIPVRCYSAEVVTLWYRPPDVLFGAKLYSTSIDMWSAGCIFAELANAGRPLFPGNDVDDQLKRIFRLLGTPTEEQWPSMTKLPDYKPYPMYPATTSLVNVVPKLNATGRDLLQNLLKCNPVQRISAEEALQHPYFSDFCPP
Chain of CDK5/p25 (Q15078 99-307 partner limits assumed): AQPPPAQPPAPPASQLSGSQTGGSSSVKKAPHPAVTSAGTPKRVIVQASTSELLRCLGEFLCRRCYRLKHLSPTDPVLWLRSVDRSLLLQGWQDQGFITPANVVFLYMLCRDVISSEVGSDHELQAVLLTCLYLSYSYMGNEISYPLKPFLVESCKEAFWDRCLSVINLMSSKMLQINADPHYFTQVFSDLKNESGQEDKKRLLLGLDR
Chain of PIM 1 (P11309 whole entry, species assumed): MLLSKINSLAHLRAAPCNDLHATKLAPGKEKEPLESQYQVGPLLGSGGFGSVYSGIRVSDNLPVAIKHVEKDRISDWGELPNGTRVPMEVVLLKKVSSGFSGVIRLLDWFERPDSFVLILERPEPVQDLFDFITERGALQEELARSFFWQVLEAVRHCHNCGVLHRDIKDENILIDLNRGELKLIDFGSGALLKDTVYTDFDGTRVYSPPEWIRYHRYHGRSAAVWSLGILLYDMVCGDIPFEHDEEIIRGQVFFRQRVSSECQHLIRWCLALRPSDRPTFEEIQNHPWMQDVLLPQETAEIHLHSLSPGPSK

| SMILES | pIC50 (GSK-3α/ß) | pIC50 (CDK1/cyclin B) | pIC50 (CK1) | pIC50 (CDK5/p25) | pIC50 [1] | pIC50 (DYRK1A) | pIC50 (PIM 1) | pIC50 (HeLa cells) | pIC50 (CK1; [2]) |
| --- | --- | --- | --- | --- | --- | --- | --- | --- | --- |
| COc1cc(-c2c3c4cc(OC)c(O)cc4oc(=O)c3n3ccc4cc(O)c(OC)cc4c23)ccc1O [Compound 1, lamellarin D] | 6.52 | 6.30 | 4.89 | 6.26 | 7.72 | 6.35 | 7.00 | 7.96 |  |
| COc1cc(-c2c3c4cc(OC)c(O)cc4oc(=O)c3n3ccc4cc(OC)c(OC)cc4c23)ccc1O [Compound 2, lamellarin α] | 5.85 | 5.10 |  | < 5.00 | < 5.00 | 5.30 | 6.23 |  | 5.10 |
| COc1cc(-c2c3n(c4c(=O)oc5cc(O)c(OC)cc5c24)CCc2cc(O)c(OC)cc2-3)ccc1O [Compound 3, di-H-lamellarin D] | 6.05 | 5.73 |  | 6.96 | 6.39 | 6.30 | 6.70 |  | 5.23 |
| O=c1oc2cc(O)c(O)cc2c2c(-c3ccc(O)c(O)c3)c3c4cc(O)c(O)cc4ccn3c12 [Compound 4, lamellarin H] | 5.02 | < 5.00 |  | < 5.00 | 6.35 | < 5.00 | < 5.00 | < 4.00 | 5.28 |
| O=c1oc2cc(O)c(O)cc2c2c(-c3ccc(O)c(O)c3)c3n(c12)CCc1cc(O)c(O)cc1-3 [Compound 5, di-H-lamellarin H] | 6.17 | < 5.00 |  | < 5.00 | 5.59 | < 5.00 | < 5.00 |  | 5.28 |
| COc1ccc(-c2c3n(c4c(=O)oc5cc(O)c(OC)cc5c24)CCc2cc(O)c(OC)cc2-3)cc1O [Compound 7, lamellarin L] | 7.39 | 6.42 |  | 7.00 | 6.15 | 6.85 | 6.60 |  | < 5.00 |
| COc1cc(-c2c3c4ccc(O)cc4oc(=O)c3n3ccc4cc(O)c(OC)cc4c23)ccc1O [Compound 9, lamellarin 3] | 6.24 | 6.28 |  | 6.22 | 7.25 | 7.22 | 6.82 | 7.40 | 6.39 |
| COc1ccc2oc(=O)c3c(c(-c4ccc(O)c(OC)c4)c4c5cc(OC)c(O)cc5ccn43)c2c1 [Compound 10, lamellarin 4] | 7.30 | 5.70 |  | 6.22 | 6.10 | 7.10 | 7.30 | 6.07 | 5.89 |
| COc1cc2c(cc1O)oc(=O)c1c2c(-c2ccc(OC)c(OC)c2)c2c3cc(OC)c(OC)cc3ccn21 [Compound 11, lamellarin 5] | < 5.00 | < 5.00 |  | < 5.00 | 5.10 | < 5.00 | 5.70 | 5.60 | < 5.00 |
| COc1cc2c(cc1O)oc(=O)c1c2c(-c2ccc(O)cc2)c2c3cc(OC)c(O)cc3ccn21 [Compound 12, lamellarin 6] | 6.89 | 7.00 |  | 7.52 | 6.96 | 7.05 | 6.48 | 7.40 | 6.10 |
| COc1cccc(-c2c3c4cc(OC)c(O)cc4oc(=O)c3n3ccc4cc(O)c(OC)cc4c23)c1 [Compound 13, lamellarin 7] | 5.68 | 5.37 |  | 5.68 | 6.85 | < 5.00 | < 5.00 | 7.15 | < 5.00 |
| COc1cc(-c2c3c4ccccc4oc(=O)c3n3ccc4cc(O)c(OC)cc4c23)ccc1O [Compound 14, lamellarin 8] | 5.66 | 5.30 |  | 6.05 | 5.58 | 6.00 | 6.15 | 5.40 | < 5.00 |
| O=c1oc2ccccc2c2c(-c3ccc(O)c(O)c3)c3c4cc(O)c(O)cc4ccn3c12 [Compound 15, lamellarin 9] | < 5.00 | < 5.00 |  | < 5.00 | < 5.00 | < 5.00 | < 5.00 | 5.96 | < 5.00 |
| COc1ccc(-c2c3c4ccccc4oc(=O)c3n3ccc4cc(OC)c(OC)cc4c23)cc1OC [Compound 16, lamellarin 11] | < 5.00 | < 5.00 |  | < 5.00 | < 5.00 | < 5.00 | < 5.00 | 5.24 | < 5.00 |
| COc1ccc(-c2c3c4cc5c(cc4oc(=O)c3n3ccc4cc(OC)c(OC)cc4c23)OCO5)cc1OC [Compound 17, lamellarin 12] | < 5.00 | < 5.00 |  | < 5.00 | < 5.00 | < 5.00 | < 5.00 | < 4.00 | < 5.00 |
| COc1cc(-c2c3n(c4c(=O)oc5cc(O)c(OC)cc5c24)CCc2c-3cc(OC)c(OC)c2O)ccc1O [Compound 22, lamellarin K] | < 5.00 | < 5.00 |  | < 5.00 | < 4.52 | < 5.00 | 6.22 |  | 5.22 |
